The source of these data is US9073916B2, “Prodrug forms of kinase inhibitors and their use in therapy” (AUCKLAND UNISERVICES LIMITED, priority 2009, dated 2015).

The IC50 is the point on the concentration scale where inhibition reaches its midpoint. The AUC(0-t) is exposure summed from dosing to a finite time, without extrapolation to infinity. Higher therefore signals more exposure. One may read the half-life as the time needed for the level to fall by half in the phase considered. The term AUC denotes the area under the concentration-time curve, a measure of exposure. Higher therefore signals more exposure.

For one series, the target named is erbB4 (Homo sapiens, UniProt Q15303). The series is described as follows: Isolated enzyme inhibition (Invitrogen Z′-LYTE kinase assay). Particulars: 10 μM ATP, duplicate. Format: biochemical. The method, then: (§1) The compounds of Table 1 were tested for their ability to inhibit erbB1, erbB1^T790M, erbB2 and erbB4 in an isolated enzyme assay. This assay utilises synthetic FRET-capable peptide substrates. Phosphorylation of these substrates protects them from cleavage by a development reagent, leaving their FRET-capabilities intact. […] As a further consideration, for compounds capable of irreversible inhibition of an enzyme, the IC50 reflects both reversible and irreversible binding to the enzyme.

In series [1] the target is T1, erbB2 (Homo sapiens, UniProt P04626). The description is as above. Format: biochemical. Particulars: 10 μM ATP, duplicate. As for the experimental part:
as §1

Another series relates to A431 cells. Nature of the series: Cellular growth inhibition (sulforhodamine B). Particulars: for IC50: Homo sapiens.
Series [2] addresses T2, erbB1 (Homo sapiens, UniProt P00533). Nature of the series: Cellular erbB1 inhibition: irreversibility wash-out assay in A431 cells.
A short description of series [3]: in vivo. Particulars: female, CD-1 nude, mouse, ip.
Series [4] in a line: in vivo. The settings on record: mouse, plasma, ip, 42 umol/kg.
Another series deals with SW620 cells. Nature of the series: Cellular growth inhibition (sulforhodamine B). In kind it is cell-based, Human. The settings on record: Table 3; for IC50: Homo sapiens, SW-620.
For another series, the system named is Erk1/2. Particulars: EGF-stimulated A431 cells.
Series [5] is described as follows: Plasma and A431 tumour pharmacokinetics of compounds 11 and 20. Particulars: NIHIII, mouse, 75 umol/kg.
Description: A small piece (˜100 mg) of tissue was placed in biopulveriser well (previously cooled in liquid nitrogen) and reduced to fine powder with a 2-3 strong blows to the stainless steel pestle. The frozen powder was collected in pre-weighed microcentrifuge tube (kept on dry ice). […] The microcentrifuge tubes were spun at 13,000 rpm for 10 min to precipitate the cell debris and proteins. […] The analytes were eluted using a gradient of 0.01% formic acid in acetonitrile (80%)-water (20%) mixture and 0.01% formic acid in water (100%) on Zorbax SB 018, rapid resolution HT 3.0×50 mm, 1.8 micron (Agilent) HPLC column with a flow rate of 0.6 ml/min.
A further series relates to SKOV3 xenografts. The series is described as follows: In vivo efficacy in SKOV3 xenografts. Set-up: species or system mice. The method, then: (§2) Specific pathogen-free homozygous female NIH-III nude mice (Charles River Laboratories, Wilmington, Mass.) were inoculated subcutaneously with a single cell suspension of SKOV3 cells (1×10^7 cells/100 μL; right flank). When SKOV3 tumour xenografts were established (typically 50-65 days) mice were randomized to treatment groups. All compounds were prepared in lactate buffer (pH4). Mice were dosed by intraperitoneal injection (0.01-0.03 ml/g) using the stated schedules and dose levels. Tumour size and body weights were measured at regular intervals. Tumour volume was calculated as π (length×width^2)/6. […] Differences in RTV^4 were tested for statistical difference by Mann Whitney U test using SigmaStat v3.5.
as §2, with “Compounds 42 and 161” for “All compounds”

For series [6], the target named is T2, erbB1. The series is described as follows: Inhibition of erbB1 autophosphorylation in EGF-stimulated intact A431 cells (Western blot). On the technique in general: Immunoblotting shows a protein as a band on a membrane.
The subject of a further series is SKBR3 cells. Nature of the series: Cellular growth inhibition (sulforhodamine B). In kind it is cell-based, Human. Particulars: Table 3; for IC50: Homo sapiens, SK-BR-3.
The subject of another series is A431 xenografts. The series is described as follows: In vivo efficacy in A431 xenografts. Particulars: A431 xenografts, q4dx6, 63% of single dose MTD. As for the experimental part: as §2, with “CD-1” for “NIH-III”, “A431” for “SKOV3”, “(5×10^6” for “(1×10^7”, “[…];” for “μL;”, “6-10” for “50-65”
The target in series [7] is T1, erbB2. Nature of the series: Inhibition of basal phospho-erbB2 in SKOV3 cells (Western blot). In kind it is cell-based. Also noted: endogenous in cells; host or cells: SKOV3 human ovarian carcinoma cells. The settings on record: SKOV3 cells; read-out: cellular erbB2 IC50. From the text:
Values are plotted using SigmaPlot 10.

The subject of the next series is H1975 xenografts. The series is described as follows: In vivo efficacy in H1975 xenografts. Set-up: species or system mice. Particulars: H1975 xenografts, equitoxic dose 133 (42) and 42.2 (161) μmol/kg/dose, q3dx4, IP. As for the experimental part: as §2, with “H1975” for “SKOV3”, “(5×10^6” for “(1×10^7”, “8-12” for “50-65”, “For growth delay experiments mice were randomized to treatment and tumor volume [π(length×width^2)/6]” for “Tumour size”, “weight” for “weights”, “daily following treatment.” for “at regular intervals. Tumour volume was calculated as π (length×width^2)/6.”

Series [8] in a line: Plasma and A431 tumour pharmacokinetics of compounds 42 and 161.
The next series deals with H1975 cells. Nature of the series: Cellular growth inhibition (sulforhodamine B). Format: cell-based, Human. Particulars: Table 9; for IC50: Homo sapiens, NCI-H1975.
Another series concerns SKOV3 cells. The series is described as follows: Cellular growth inhibition (sulforhodamine B). Format: cell-based, Human. The settings on record: Table 9; for IC50: Homo sapiens, SK-OV-3.
Where [9] appears, read: A-431, 24 h, read-out: Cellular Growth Inhibition IC50 A431 Oxic.

Values joined by “and” are separate entries in the source; they are usually repeats but may differ in a detail not shown here. Identical values can stand only once. Like-named read-outs stand apart in the source and are kept apart here.

T2 sequence (P00533 25-1210): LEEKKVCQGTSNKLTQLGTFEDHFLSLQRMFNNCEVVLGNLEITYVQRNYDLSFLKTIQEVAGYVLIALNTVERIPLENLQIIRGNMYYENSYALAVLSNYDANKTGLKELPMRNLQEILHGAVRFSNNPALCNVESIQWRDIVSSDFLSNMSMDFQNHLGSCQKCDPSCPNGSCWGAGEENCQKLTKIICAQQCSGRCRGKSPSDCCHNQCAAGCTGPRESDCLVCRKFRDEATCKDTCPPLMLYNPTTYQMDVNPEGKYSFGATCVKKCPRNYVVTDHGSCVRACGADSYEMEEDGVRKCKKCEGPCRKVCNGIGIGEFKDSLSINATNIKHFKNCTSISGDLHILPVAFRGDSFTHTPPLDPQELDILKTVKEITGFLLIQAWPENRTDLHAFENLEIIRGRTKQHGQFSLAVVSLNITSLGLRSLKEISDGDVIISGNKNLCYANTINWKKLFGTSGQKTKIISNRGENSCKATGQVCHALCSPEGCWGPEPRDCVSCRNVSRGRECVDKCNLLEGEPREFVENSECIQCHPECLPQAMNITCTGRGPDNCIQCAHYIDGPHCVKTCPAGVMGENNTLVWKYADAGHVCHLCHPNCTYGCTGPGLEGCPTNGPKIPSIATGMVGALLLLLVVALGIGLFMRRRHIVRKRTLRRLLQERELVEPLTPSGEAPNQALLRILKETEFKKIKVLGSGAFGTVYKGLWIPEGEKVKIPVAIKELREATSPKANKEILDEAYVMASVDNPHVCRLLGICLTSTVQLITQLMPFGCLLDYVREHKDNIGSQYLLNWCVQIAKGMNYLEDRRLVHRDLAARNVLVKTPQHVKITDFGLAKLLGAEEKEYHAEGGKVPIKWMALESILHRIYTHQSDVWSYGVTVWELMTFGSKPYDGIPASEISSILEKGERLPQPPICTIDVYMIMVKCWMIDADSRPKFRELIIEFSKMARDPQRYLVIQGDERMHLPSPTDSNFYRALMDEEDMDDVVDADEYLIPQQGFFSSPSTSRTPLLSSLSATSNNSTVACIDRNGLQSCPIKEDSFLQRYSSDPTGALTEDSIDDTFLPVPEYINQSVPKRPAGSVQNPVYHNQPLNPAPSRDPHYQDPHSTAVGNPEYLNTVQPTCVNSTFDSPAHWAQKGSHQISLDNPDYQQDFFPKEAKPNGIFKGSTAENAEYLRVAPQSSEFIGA
T1 sequence (P04626 23-1255): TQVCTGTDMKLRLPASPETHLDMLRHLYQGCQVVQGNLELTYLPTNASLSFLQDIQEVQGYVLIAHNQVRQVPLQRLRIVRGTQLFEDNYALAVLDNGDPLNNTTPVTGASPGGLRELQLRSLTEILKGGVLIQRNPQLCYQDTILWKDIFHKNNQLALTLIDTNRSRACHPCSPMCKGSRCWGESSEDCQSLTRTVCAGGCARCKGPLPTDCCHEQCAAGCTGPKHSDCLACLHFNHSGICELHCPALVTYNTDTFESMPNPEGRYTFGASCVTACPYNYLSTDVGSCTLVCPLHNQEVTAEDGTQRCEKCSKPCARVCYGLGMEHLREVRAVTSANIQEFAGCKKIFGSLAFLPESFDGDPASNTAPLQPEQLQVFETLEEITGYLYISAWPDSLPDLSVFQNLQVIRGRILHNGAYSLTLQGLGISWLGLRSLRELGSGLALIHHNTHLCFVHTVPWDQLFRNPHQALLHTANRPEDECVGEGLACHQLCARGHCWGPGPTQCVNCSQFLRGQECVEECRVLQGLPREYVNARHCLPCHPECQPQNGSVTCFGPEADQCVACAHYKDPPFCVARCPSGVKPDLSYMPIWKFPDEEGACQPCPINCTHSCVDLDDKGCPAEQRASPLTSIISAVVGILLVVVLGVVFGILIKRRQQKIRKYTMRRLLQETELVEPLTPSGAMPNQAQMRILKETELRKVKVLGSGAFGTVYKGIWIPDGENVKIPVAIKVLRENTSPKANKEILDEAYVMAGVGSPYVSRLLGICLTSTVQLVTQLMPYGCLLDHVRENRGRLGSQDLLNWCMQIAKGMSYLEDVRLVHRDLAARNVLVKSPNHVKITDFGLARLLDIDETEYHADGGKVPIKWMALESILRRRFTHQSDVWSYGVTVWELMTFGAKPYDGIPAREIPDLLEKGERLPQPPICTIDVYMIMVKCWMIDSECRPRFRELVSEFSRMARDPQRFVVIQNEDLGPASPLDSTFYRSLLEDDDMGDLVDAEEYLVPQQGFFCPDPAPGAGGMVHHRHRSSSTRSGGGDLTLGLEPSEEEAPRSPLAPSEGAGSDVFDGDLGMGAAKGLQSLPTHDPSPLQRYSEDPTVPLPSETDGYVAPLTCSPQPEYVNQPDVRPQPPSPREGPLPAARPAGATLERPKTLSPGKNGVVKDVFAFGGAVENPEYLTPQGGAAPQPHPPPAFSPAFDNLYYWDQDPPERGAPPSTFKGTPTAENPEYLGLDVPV
Sequence of erbB4 (Q15303 26-1308): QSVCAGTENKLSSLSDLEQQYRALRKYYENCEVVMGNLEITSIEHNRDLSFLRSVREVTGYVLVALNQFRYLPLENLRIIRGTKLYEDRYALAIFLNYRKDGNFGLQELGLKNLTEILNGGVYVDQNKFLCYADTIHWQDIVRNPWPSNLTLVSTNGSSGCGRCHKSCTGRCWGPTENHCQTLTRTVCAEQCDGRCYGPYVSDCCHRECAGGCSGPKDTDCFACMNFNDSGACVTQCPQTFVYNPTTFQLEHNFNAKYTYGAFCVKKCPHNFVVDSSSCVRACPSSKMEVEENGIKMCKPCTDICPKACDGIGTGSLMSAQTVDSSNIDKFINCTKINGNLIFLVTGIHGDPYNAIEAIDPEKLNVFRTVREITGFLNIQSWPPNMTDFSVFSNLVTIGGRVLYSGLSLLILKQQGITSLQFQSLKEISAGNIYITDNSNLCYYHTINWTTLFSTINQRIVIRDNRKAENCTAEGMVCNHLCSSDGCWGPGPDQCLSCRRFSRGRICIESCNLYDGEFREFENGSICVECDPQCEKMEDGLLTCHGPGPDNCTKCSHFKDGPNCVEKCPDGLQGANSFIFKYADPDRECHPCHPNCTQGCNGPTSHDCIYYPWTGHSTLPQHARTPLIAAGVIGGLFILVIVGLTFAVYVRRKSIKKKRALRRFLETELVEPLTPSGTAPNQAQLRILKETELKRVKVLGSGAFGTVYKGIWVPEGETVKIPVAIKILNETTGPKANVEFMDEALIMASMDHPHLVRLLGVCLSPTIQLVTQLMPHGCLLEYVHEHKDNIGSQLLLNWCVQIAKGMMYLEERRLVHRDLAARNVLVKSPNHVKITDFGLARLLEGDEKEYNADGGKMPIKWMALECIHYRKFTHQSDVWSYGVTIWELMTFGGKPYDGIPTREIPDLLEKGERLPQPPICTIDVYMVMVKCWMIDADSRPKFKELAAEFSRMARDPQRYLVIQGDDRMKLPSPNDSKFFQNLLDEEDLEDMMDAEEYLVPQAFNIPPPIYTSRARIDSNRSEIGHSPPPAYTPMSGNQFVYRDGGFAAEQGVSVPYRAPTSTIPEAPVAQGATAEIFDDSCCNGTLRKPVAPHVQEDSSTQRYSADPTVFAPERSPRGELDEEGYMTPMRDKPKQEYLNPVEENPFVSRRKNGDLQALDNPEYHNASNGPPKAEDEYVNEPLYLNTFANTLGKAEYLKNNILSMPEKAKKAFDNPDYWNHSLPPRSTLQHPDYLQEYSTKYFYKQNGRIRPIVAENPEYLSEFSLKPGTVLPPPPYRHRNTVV
Description for H1975 cells: (§3) Human A431, BT474, SKBR3, SKOV3, SW620, H1975 and HT29 carcinoma cells in log phase exponential growth in alpha minimal essential media (αMEM) containing 5% fetal bovine serum (FBS), were harvested by trypsinisation (1× trypsin/EDTA, Gibco Brl), counted, and seeded into 96 well plates (Nunc) at cell densities ranging from 800-1500 cells/well. Half of the cell samples were seeded into plates that were pre-equilibrated and held in an anoxic environment (90% N2, 5% H2, 5% CO2, 37° Q Anaerobic chamber, Coy Laboratory Products). […] At the end of this period the anoxic plates were recovered from the anaerobic camber and held under normoxia in a standard CO2 incubator (37° C.) for 20 hours. All plates were washed free of compound and cells were allowed to proliferate for a further 4 days in αMEM containing 5% FBS+antibiotics. Cells were fixed in trichloroacteic acid (30 min), washed and stained with sulforhodamine B (SRB, 60 min) prior to washing in acidified water. SRB was solubilised and absorption read at 450 nm to calculate cell densities. Inhibition of proliferation was calculated relative to untreated control wells.
Human A431, H1975 and SKOV3 carcinoma cells in log phase exponential growth in alpha minimal essential media (αMEM) containing 5% fetal bovine serum (FBS), were harvested by trypsinisation (1× trypsin/EDTA, Gibco Brl), counted, and seeded into 96 well plates (Nunc) at cell densities ranging from 800-1500 cells/well. Half of the cell samples were seeded into plates that were pre-equilibrated and held in an anoxic environment (90% N2, 5% H2, 5% CO2, 37° C.; Anaerobic chamber, Coy Laboratory Products). […] At the end of this period the anoxic plates were recovered from the anaerobic camber and held under normoxia in a standard CO2 incubator (37° C.) for 20 hours. All plates were washed free of compound and cells were allowed to proliferate for a further 4 days in αMEM containing 5% FBS+antibiotics. Cells were fixed in trichloroacteic acid (30 min), washed and stained with sulforhodamine B (SRB, 60 min) prior to washing in acidified water. SRB was solubilised and absorption read at 450 nm to calculate cell densities. Inhibition of proliferation was calculated relative to untreated control wells.
They were then washed free of drug and incubated for a further 4 days, before being stained for cell survival with sulforhodamine B.
Description for SKBR3 cells: as §3
Description for SW620 cells: as §3

In the case of `CN(C)C/C=C/C(=O)Nc1ccc2ncnc(Nc3cccc(Br)c3)c2c1` [Compound 11, (2E)-N-[4-(3-bromoanilino)-6-quinazolinyl]-4-(dimethylamino)-2-butenamide, reference compound], the IC50 was 2.7 nM at erbB4; 8 nM and 7.7 nM at erbB2 [1]; 40 nM with A431 cells (setting [9]); 40 nM in the series with A431 cells (A-431, read-out: Cellular Growth Inhibition IC50 A431 Anoxic); 3430 nM in the series on SW620 cells (24 hour exposure entirely oxic, read-out: Cellular Growth Inhibition IC50 SW620 Oxic); 2890 nM with SW620 cells (first 4 hours anoxic, read-out: Cellular Growth Inhibition IC50 SW620 Anoxic). In addition, the IC50 in the series with SKBR3 cells (24 hour exposure entirely oxic, read-out: Cellular Growth Inhibition IC50 SKBR3 Oxic) stood at 81 nM; with SKBR3 cells (first 4 hours anoxic, read-out: Cellular Growth Inhibition IC50 SKBR3 Anoxic), 141 nM. Moreover, the “erbB1 autophosphorylation, cells not washed free of drug” value at erbB1 [2] is “completely inhibited”. This compound returned an MTD in the series “in vivo [3]” of 100 µmol/kg. The AUC(0-t) in “in vivo [4]” was 12 µM·h. Further, in the series with SW620 cells, the “SW620 HCR” value is listed as 1.2 fold. In the series with Erk1/2, the “inhibition of cellular Erk1/2 phosphorylation” value is “potent inhibitor”. In series [5] (A431 tumour, intraperitoneal), this compound gave a half-life of 9 h. Further, the AUC in series [5] (plasma, ip) came to 18 µM·h. Also, the deaths with SKOV3 xenografts (q3dx6, 133 (20) and 56 (11) umol/kg/dose) was 1/7; in the series on A431 xenografts it was 2/12. In addition, the “inhibition of cellular HER1 phosphorylation” value against erbB1 [6] (EGF-stimulated A431 cells) is listed as “potent inhibitor”. In addition, the “SKBR3 HCR” value in the series with SKBR3 cells amounted to 0.6 fold.

Turning to `CN(C)C/C=C/C(=O)Nc1cc2c(Nc3ccc(F)c(Br)c3)ncnc2cn1` [Compound 161, (2E)-N-[4-(3-bromo-4-fluoroanilino)pyrido[3,4-d]pyrimidin-6-yl]-4-(dimethylamino)-2-butenamide], the IC50 is 28 nM in the series on A431 cells (A-431, 4 h, read-out: Cellular Growth Inhibition IC50 A431 Anoxic); 30 nM with A431 cells (setting [9]); 6 nM on erbB2 [7]; 5 nM against erbB1 [6]; 1260 nM in the series on H1975 cells (24 hour exposure oxic, read-out: Cellular Growth Inhibition IC50 H1975 Oxic); 1400 nM in the series on H1975 cells (first 4 hours anoxic, read-out: Cellular Growth Inhibition IC50 H1975 Anoxic). Moreover, the IC50 in the series on SKOV3 cells (24 hour exposure oxic, read-out: Cellular Growth Inhibition IC50 SKOV3 Oxic) worked out at 840 nM; with SKOV3 cells (first 4 hours anoxic, read-out: Cellular Growth Inhibition IC50 SKOV3 Anoxic) it was 1310 nM. Also, the “A431 HCR” value with A431 cells (Table 9) was 1.6 fold. Further, the “erbB1 autophosphorylation, cells not washed free of drug” value on erbB1 [2] (1 μM, 1 hour exposure, then EGF stimulation) is recorded as “completely inhibited”. In the series on H1975 xenografts, the “tumour growth inhibition (TGI)” value is listed as 100%. Moreover, the deaths in the series on SKOV3 xenografts (q3dx9, 100 (42) and 31.6 (161) μmol/kg/dose) is reported as 1/7. The AUC in series [8] (female, NIH-III, mouse, plasma, ip, 31.6 umol/kg) was 8 µM·h. Moreover, in series [8] (inhibitor 161 dosed directly at 31.6 umol/kg ip, A431 tumour), the “tumour AUC0-inf” value is 49 µmol·h/kg. Moreover, the “H1975 HCR” value in the series on H1975 cells is 0.9 fold. Also, the “SKOV3 HCR” value with SKOV3 cells is reported as 0.8 fold.
